{"source": "patent US20090298814A1", "about": "“Novel salts of conjugated psychotropic drugs and processes of preparing same” (RAMOT AT TEL AVIV UNIVERISTY LTD, priority 2005, published 2009)", "type_in_all_cases": "physicochemical", "key": {"[1]": {"assay": "Hygroscopicity of mesylate and maleate salts by Karl Fischer titration", "method": "Water absorption and content measurements were carried out using a Karl Fischer (KF) titrator. Karl Fischer titration is a classic method in analytical chemistry that uses calometric titration to determine the moisture content of a sample, which is specific to water. The titration reaction taking place in the presence of a base and 50:50 methanol:dichloromethane as a titration solvent.\nThe accurately weighted samples (near 100 mg) of the tested compound were placed in the titrator to determine the amount of sample required for measuring 10-250 μg of water, and the water content was calculated accordingly.\n(§1) Stability and hygroscopicity studies of the mesylate and maleate salts of the conjugate were carried out under various conditions. The hygroscopicity of the salts was determined by following the water content of the salt using the Karl Fischer (KF) titration analysis method. The chemical stability of the salts was determined by following the appearance of the degradation product perphenazine using HPLC analyses. The samples were kept at −20° C. under nitrogen, at room temperature in an open container, at room temperature in a sealed container and at 40° C. in a sealed container. The samples were tested at the end of the preparation procedure (t=0), 72 hours after the preparation time (t=72), 1 week after the preparation time (t=168) and two weeks after the preparation time (t=336)."}, "[2]": {"assay": "Chemical stability of mesylate and maleate salts by HPLC under various storage conditions", "method": "The chemical stability of the conjugates was determined by HPLC analyses and was measured by the relative peak areas of the substance and of at least one of its degradation products. Thus, as is further exemplified in the Examples section that follows, the chemical stability of the exemplary conjugates described above was measured during time periods that typically ranged from 1 day to 24 days, whereby the conjugates were kept in sealed or open containers, with or without nitrogen atmosphere, and at a temperature range of from −20° C. to 40° C.\nHPLC analyses were performed on a Water 2695 Separations Module, using a Luna C18 (2) 50 mm×4.6 mm×3 um column, a 5 μl injection volume and a 2487 dual wavelength detector under the following instrumental conditions: Mobile phase A: 0.1% formic acid; Mobile phase B: acetonitrile; Flow rate: 0.5 ml per minute; Mobile phase gradient: 0.0 minutes 90% A, 10% B, 14.0 minutes 20% A, 80% B, 15.0 minutes 90% A, 10% B and 20.0 minutes 90% A, 10% B; Run time: 20 minutes; Detection: UV at 254 nm; Column temperature: 40° C.\nas §1"}, "[3]": {"assay": "Chemical stability of mesylate and maleate salts by HPLC under various storage conditions", "remark": "listed apart in the source"}, "[4]": {"assay": "Solubility in 1% weight/volume lactic acid solution", "conditions": "agitated 1 hour at room temperature, listed as maleate salt", "method": "1.0 gram of each of the mesylate and maleate addition salts prepared as described herein was agitated in 10 ml of 1% weight/volume lactic acid solution for 1 hour at room temperature. Any solids remaining thereafter were filtered off and the filtrate was dried under vacuum until no further change in weight was detected. […] The calculated solubility obtained for the mesylate salt was more than 100 mg/ml."}, "[5]": {"conditions": "Open container kept at room temperature, t = 0 hours"}, "[6]": {"conditions": "Open container kept at room temperature, t = 72 hours"}, "[7]": {"conditions": "Open container kept at room temperature, t = 168 hours"}, "[8]": {"conditions": "Open container kept at room temperature, t = 336 hours"}, "[9]": {"conditions": "Sealed container kept at 40° C., t = 0 hours"}, "[10]": {"conditions": "Sealed container kept at 40° C., t = 72 hours"}, "[11]": {"conditions": "Sealed container kept at 40° C., t = 168 hours"}, "[12]": {"conditions": "Sealed container kept at 40° C., t = 336 hours"}, "[13]": {"conditions": "Sealed container kept at room temperature, t = 0 hours"}, "[14]": {"conditions": "Sealed container kept at room temperature, t = 72 hours"}, "[15]": {"conditions": "Sealed container kept at room temperature, t = 168 hours"}, "[16]": {"conditions": "Sealed container kept at room temperature, t = 336 hours"}, "[17]": {"conditions": "Sealed container kept at −20° C. under N2, t = 0 hours"}, "[18]": {"conditions": "Sealed container kept at −20° C. under N2, t = 72 hours"}, "[19]": {"conditions": "Sealed container kept at −20° C. under N2, t = 168 hours"}, "[20]": {"conditions": "Sealed container kept at −20° C. under N2, t = 336 hours"}, "[21]": {"conditions": "open container at room temperature, five weeks (about 840 hours)"}}, "note": "Structures can show the parent of a compound that is named as a salt."}
{"smiles": "NCCCC(=O)OCCN1CCN(CCCN2c3ccccc3Sc3ccc(Cl)cc32)CC1", "note": "[maleate addition salt]", "values": [{"measurement": "Water content %", "setting": "[1]; [5]", "result": 0.3, "unit": "%"}, {"measurement": "Water content %", "setting": "[1]; [6]", "result": 0.7, "unit": "%"}, {"measurement": "Water content %", "setting": "[1]; [7]", "result": 0.8, "unit": "%"}, {"measurement": "Water content %", "setting": "[1]; [8]", "result": 0.8, "unit": "%"}, {"measurement": "Water content %", "setting": "[1]; [9]", "result": 0.3, "unit": "%"}, {"measurement": "Water content %", "setting": "[1]; [10]", "result": 0.5, "unit": "%"}, {"measurement": "Water content %", "setting": "[1]; [11]", "result": 0.7, "unit": "%"}, {"measurement": "Water content %", "setting": "[1]; [12]", "result": 0.7, "unit": "%"}, {"measurement": "Water content %", "setting": "[1]; [13]", "result": 0.3, "unit": "%"}, {"measurement": "Water content %", "setting": "[1]; [14]", "result": 0.5, "unit": "%"}, {"measurement": "Water content %", "setting": "[1]; [15]", "result": 0.8, "unit": "%"}, {"measurement": "Water content %", "setting": "[1]; [16]", "result": 0.5, "unit": "%"}, {"measurement": "Water content %", "setting": "[1]; [17]", "result": 0.3, "unit": "%"}, {"measurement": "Water content %", "setting": "[1]; [18]", "result": 0.3, "unit": "%"}, {"measurement": "Water content %", "setting": "[1]; [19]", "result": 0.3, "unit": "%"}, {"measurement": "Water content %", "setting": "[1]; [20]", "result": 0.5, "unit": "%"}, {"measurement": "water content", "setting": "[1]; [21]", "result": 0.91, "unit": "%"}, {"measurement": "Salt peak area", "setting": "[2]; [5]", "result": 96.54, "unit": "%"}, {"measurement": "Unidentified impurity peak area", "setting": "[2]; [5]", "result": 1.05, "unit": "%"}, {"measurement": "perphenazine peak area", "setting": "[2]; [5]", "result": 1.44, "unit": "%"}, {"measurement": "Salt peak area", "setting": "[2]; [6]", "result": 96.43, "unit": "%"}, {"measurement": "Unidentified impurity peak area", "setting": "[2]; [6]", "result": 0.98, "unit": "%"}, {"measurement": "perphenazine peak area", "setting": "[2]; [6]", "result": 1.44, "unit": "%"}, {"measurement": "Salt peak area", "setting": "[2]; [7]", "result": 96.82, "unit": "%"}, {"measurement": "Unidentified impurity peak area", "setting": "[2]; [7]", "result": 0.94, "unit": "%"}, {"measurement": "perphenazine peak area", "setting": "[2]; [7]", "result": 1.46, "unit": "%"}, {"measurement": "Salt peak area", "setting": "[2]; [8]", "result": 96.00, "unit": "%"}, {"measurement": "Unidentified impurity peak area", "setting": "[2]; [8]", "result": 0.93, "unit": "%"}, {"measurement": "perphenazine peak area", "setting": "[2]; [8]", "result": 1.43, "unit": "%"}, {"measurement": "Salt peak area", "setting": "[2]; [9]", "result": 96.54, "unit": "%"}, {"measurement": "Unidentified impurity peak area", "setting": "[2]; [9]", "result": 1.05, "unit": "%"}, {"measurement": "perphenazine peak area", "setting": "[2]; [9]", "result": 1.44, "unit": "%"}, {"measurement": "Salt peak area", "setting": "[2]; [10]", "result": 94.96, "unit": "%"}, {"measurement": "Unidentified impurity peak area", "setting": "[2]; [10]", "result": 2.16, "unit": "%"}, {"measurement": "perphenazine peak area", "setting": "[2]; [10]", "result": 1.52, "unit": "%"}, {"measurement": "Salt peak area", "setting": "[2]; [11]", "result": 94.32, "unit": "%"}, {"measurement": "Unidentified impurity peak area", "setting": "[2]; [11]", "result": 2.46, "unit": "%"}, {"measurement": "perphenazine peak area", "setting": "[2]; [11]", "result": 1.65, "unit": "%"}, {"measurement": "Salt peak area", "setting": "[2]; [12]", "result": 92.93, "unit": "%"}, {"measurement": "Unidentified impurity peak area", "setting": "[2]; [12]", "result": 2.79, "unit": "%"}, {"measurement": "perphenazine peak area", "setting": "[2]; [12]", "result": 1.80, "unit": "%"}, {"measurement": "Salt peak area", "setting": "[2]; [13]", "result": 96.54, "unit": "%"}, {"measurement": "Unidentified impurity peak area", "setting": "[2]; [13]", "result": 1.05, "unit": "%"}, {"measurement": "perphenazine peak area", "setting": "[2]; [13]", "result": 1.44, "unit": "%"}, {"measurement": "Salt peak area", "setting": "[2]; [14]", "result": 96.24, "unit": "%"}, {"measurement": "Unidentified impurity peak area", "setting": "[2]; [14]", "result": 1.09, "unit": "%"}, {"measurement": "perphenazine peak area", "setting": "[2]; [14]", "result": 1.43, "unit": "%"}, {"measurement": "Salt peak area", "setting": "[2]; [15]", "result": 96.86, "unit": "%"}, {"measurement": "Unidentified impurity peak area", "setting": "[2]; [15]", "result": 1.11, "unit": "%"}, {"measurement": "perphenazine peak area", "setting": "[2]; [15]", "result": 1.40, "unit": "%"}, {"measurement": "Salt peak area", "setting": "[2]; [16]", "result": 95.69, "unit": "%"}, {"measurement": "Unidentified impurity peak area", "setting": "[2]; [16]", "result": 1.24, "unit": "%"}, {"measurement": "perphenazine peak area", "setting": "[2]; [16]", "result": 1.47, "unit": "%"}, {"measurement": "Salt peak area", "setting": "[2]; [17]", "result": 96.54, "unit": "%"}, {"measurement": "Unidentified impurity peak area", "setting": "[2]; [17]", "result": 1.05, "unit": "%"}, {"measurement": "perphenazine peak area", "setting": "[2]; [17]", "result": 1.44, "unit": "%"}, {"measurement": "Salt peak area", "setting": "[2]; [18]", "result": 96.79, "unit": "%"}, {"measurement": "Unidentified impurity peak area", "setting": "[2]; [18]", "result": 0.99, "unit": "%"}, {"measurement": "perphenazine peak area", "setting": "[2]; [18]", "result": 1.38, "unit": "%"}, {"measurement": "Salt peak area", "setting": "[2]; [19]", "result": 96.85, "unit": "%"}, {"measurement": "Unidentified impurity peak area", "setting": "[2]; [19]", "result": 0.98, "unit": "%"}, {"measurement": "perphenazine peak area", "setting": "[2]; [19]", "result": 1.39, "unit": "%"}, {"measurement": "Salt peak area", "setting": "[2]; [20]", "result": 96.69, "unit": "%"}, {"measurement": "Unidentified impurity peak area", "setting": "[2]; [20]", "result": 1.03, "unit": "%"}, {"measurement": "perphenazine peak area", "setting": "[2]; [20]", "result": 1.39, "unit": "%"}, {"measurement": "stability in words", "setting": "[2]; all storage conditions of Table 8", "result": "stable in all sample forms"}, {"measurement": "stability and hygroscopicity in words", "setting": "[2]; as compared to the HCl and mesylate salt", "result": "more stable and less hygroscopic"}, {"measurement": "perphenazine (HPLC)", "setting": "[2]; [21]", "result": 1.46, "unit": "%"}, {"measurement": "purity (HPLC)", "setting": "[3]; [21]", "result": 94.98, "unit": "%"}, {"measurement": "texture and color after storage", "setting": "[3]; room temperature, open to the atmosphere, listed as maleate salt", "result": "slightly discolored, changing from yellow to light orange but stayed as a free flowing solid"}, {"measurement": "calculated solubility", "setting": "[4]", "result": 48, "unit": "mg/mL"}]}
